# According to patent US20250092058A1 (priority 2018, published 2025):
# Key:
# CRC PDX27454 tumors = settings: mouse, in vivo
# Method: Colorectal cancer (CRC) patient-derived xenograft (PDX) models were used to evaluate their in vivo antitumor activity. […] Treatments were administered weekly for four weeks on days 0, 7, 14 and 21 and tumor volumes and individual body weights were monitored.
# (§1) Human xenograft tumors used. In this invention disclose, human SW620 (colorectal), HT29 (colorectal) and HT-3 (retinoblastoma) cancer cell line-established xenograft tumors were used. Human tumor cell line-derived xenograft tumors are initially established by subcutaneously injecting 2-5×10^6 cultured cancer cells in a volume of 100-150 p L medium into the flank area of severe combined immunodeficiency (SCID) mice. The derived tumors are then passed a couple of generations in mice by transplanting 30-50 mg non-necrotic tumor mass via a trocar for experiments or maintenance. […] PDX tumors were originally established on severe Combined Immunodeficiency (SCID) mice from pancreatic and colorectal cancer patient tumor tissues obtained from metastatic sites of the disease in the clinic.
# Specifically, PDX tumors were originally established on severe Combined Immunodeficiency (SCID) mice from pancreatic and colorectal cancer patient tumor tissues obtained from metastatic sites of the disease in the clinic. […] The vehicle is the same think aqueous suspension without drug. Experimental SCID mice were subcutaneously implanted with 30-40 mg individual PDX tumors (isolated from maintenance mice) at the flank area for PDX27454 of SCID mice. Treatment with vehicle or a drug of 7Q-series (2) was initiated 7-14 days after the transplanted tumors reached 100-200 mm^3 (designated day 0). The animal model of PDX tumors was orally treated weekly for 4 times (one cycle/course, as shown with black arrows) or only one time drug administration.
# HCT116 = format: cell-based, human
# HeLa = format: cell-based, human
# A549 = format: cell-based, human
# HepG2 = format: cell-based, human
# Wer 127 = assay: MTT assay Wer 127; format: cell-based; settings: Table 7
# Method: (§2) MTT assays. […] Each experiment was performed at least in triplicate.
# HT-3 = assay: MTT assay HT-3; format: cell-based, human; settings: Table 7; HT-3
# Method: MTT assays. […] Viable cells (2500 cells per well) were plated in each well in 96-well plates. After an overnight incubation, cells were treated with and without relevant drugs alone and in combination, respectively, at various concentrations and incubated for 72 hours. MTT, a colorimetric substrate, was added to a final concentration of 0.4 mg/ml to each well. Cells in 96-well plates were further incubated in a 5% CO2 incubator at 37° C. for 4 hours, and then the medium was aspirated. The MTT metabolic product formazan was solubilized by adding 200 ul of DMSO to each well. Absorbance in the relevant wells was measured at 570 nm using an Ultra Microplate Reader (Bio-Tek Instruments). Each experiment was performed at least in triplicate. IC50/EC50 values were calculated from a series of drug dose ranges for each analyzed compound, using GraphPad Prism 6 (GraphPad Software, Inc., La Jolla, CA).
# The inhibition of cell growth and viability in various cancer cell types were tested using MTT assay for references.
# Y79 = assay: MTT assay Y79; format: cell-based; settings: Table 7
# Method: as §2
# [1] = test system: HT-3 retinoblastoma xenograft tumors; settings: oral, multiple doses, weekly×4
# Method: Human HT-3 retinoblastoma xenograft tumors were initially established by subcutaneously injection of 2-5×10^6 HT-3 cells in a volume of 100-200 μL medium. Mouse models of HT-3 xenografts were set up by subcutaneously inoculating 30-40 mg tumor tissue on the flank of SCID mice. Treatment with individual compounds was initiated 7-14 days after the transplanted tumors reached 100-200 mm^3 (designated day 0). […] The individual compounds were formulated in an organic solvent-free with HPPCD as drug carriers in 2% HPMC (hydroxypropyl methylcellulose) and 1% PG (propylene glycol) in saline (a thick aqueous suspension) for oral administration. The vehicle is the same thick aqueous suspension without drug. A. FL7s-3-treated xenograft tumor curve profile (left panel) and body weight profile (right panel) over the experimental period. B. FL7s-4-treated xenograft tumor curve profile (left panel) and body weight profile (right panel) over the experimental period. C. FL7s-7-treated xenograft tumor curve profile (left panel) and body weight profile (right panel) over the experimental period.
# as §1
# To these three novel compounds, we performed in vivo animal model studies to evaluate their antitumor activity and toxicity using the HT-3 retinoblastoma xenograft tumor models. In this experiment, we still took advantage of the newly developed formulation for oral administration of compounds.
Compound,IC50 (HCT116),IC50 (HeLa),IC50 (A549),IC50 (HepG2),IC50/EC50 (Wer 127),IC50/EC50 (HT-3),IC50/EC50 (Y79),other results
CC[C@@]1(O)C(=O)OCc2c1cc1n(c2=O)Cc2c-1nc1cc3c(cc1c2-c1ccc(C)c(F)c1)OCO3 [Compound 7Q28],–,–,–,–,–,–,–,"antitumor activity, 7Q-series (2) (CRC PDX27454 tumors): much higher antitumor activity than the other compounds in this 7Q-series (2); effect of oral instead of i.p. administration on antitumor efficacy (CRC PDX27454 tumors): decreases 7Q28 antitumor efficacy"
CC[C@@]1(O)C(=O)OCc2c1cc1n(c2=O)Cc2c-1nc1cc3c(cc1c2-c1ccc(OC)c(F)c1)OCO3 [Compound 7Q31],–,–,–,–,–,–,–,"antitumor activity, 7Q-series (2) (CRC PDX27454 tumors): much higher antitumor activity than the other compounds in this 7Q-series (2); effect of oral instead of i.p. administration on antitumor efficacy (CRC PDX27454 tumors): decreases 7Q28 antitumor efficacy"
CC[C@@]1(O)C(=O)OCc2c1cc1n(c2=O)Cc2c-1nc1cc3c(cc1c2-c1ccc(F)c(OC)c1)OCO3 [Compound 7Q32],–,–,–,–,–,–,–,"antitumor activity, 7Q-series (2) (CRC PDX27454 tumors): much higher antitumor activity than the other compounds in this 7Q-series (2); toxicity on i.p. versus oral administration (CRC PDX27454 tumors): increases 7Q32 toxicity to animals in comparison with oral administration"
CC[C@@]1(O)C(=O)OCc2c1cc1n(c2=O)Cc2c-1nc1cc3c(cc1c2-c1cccc(C(F)(F)F)c1)OCO3 [Compound 7Q35],–,–,–,–,–,–,–,"antitumor activity, 7Q-series (2) (CRC PDX27454 tumors): much higher antitumor activity than the other compounds in this 7Q-series (2); effect of oral instead of i.p. administration on antitumor efficacy (CRC PDX27454 tumors): decreases 7Q35 antitumor efficacy"
CC[C@@]1(O)C(=O)OCc2c1cc1n(c2=O)Cc2c-1nc1cc3c(cc1c2-c1cccc(OC(F)(F)F)c1)OCO3 [Compound 7Q36],–,–,–,–,–,–,–,"antitumor activity, 7Q-series (2) (CRC PDX27454 tumors): much higher antitumor activity than the other compounds in this 7Q-series (2); loss of antitumor efficacy on oral administration (CRC PDX27454 tumors): > 80%"
CC[C@@]1(O)C(=O)OCc2c1cc1n(c2=O)Cc2c-1nc1cc3c(cc1c2-c1cccc(F)c1)OCO3 [Compound 7a],150 ± 2.5 nM,34.7 ± 6.5 nM,40 ± 0.3 nM,155 ± 35.1 nM,–,–,–,–
CC[C@@]1(O)C(=O)OCc2c1cc1n(c2=O)Cc2c-1nc1cc3c(cc1c2-c1cc(F)cc(F)c1)OCO3 [Compound 7c],48 ± 4.4 nM,35.6 ± 5.8 nM,49.5 ± 10 nM,41.4 ± 5.9 nM,–,–,–,antitumor efficacy (CRC PDX27454 tumors): high antitumor efficacy; mouse body weights (CRC PDX27454 tumors; ip): stable mouse body weights
CC[C@@]1(O)C(=O)OCc2c1cc1n(c2=O)Cc2c-1nc1cc3c(cc1c2-c1ccc(C)c(F)c1)OCO3 [Compound 7d],50.3 ± 14.6 nM,22.1 ± 7.3 nM,48.2 ± 7.9 nM,36.9 ± 1.2 nM,–,–,–,–
CC[C@@]1(O)C(=O)OCc2c1cc1n(c2=O)Cc2c-1nc1cc3c(cc1c2-c1ccc(F)c(C)c1)OCO3 [Compound 7e],25.5 ± 3.2 nM,36.6 ± 4.5 nM,29.4 ± 4.1 nM,36.7 ± 2.6 nM,–,–,–,–
CC[C@@]1(O)C(=O)OCc2c1cc1n(c2=O)Cc2c-1nc1cc3c(cc1c2-c1cc(C)cc(F)c1)OCO3 [Compound 7f],41.4 ± 5.9 nM,56.5 ± 2.8 nM,30.6 ± 3.8 nM,56 ± 0.3 nM,–,–,–,–
CC[C@@]1(O)C(=O)OCc2c1cc1n(c2=O)Cc2c-1nc1cc3c(cc1c2-c1ccc(OC)c(F)c1)OCO3 [Compound 7g],43.2 ± 15.8 nM,24.3 ± 4.4 nM,70.2 ± 9.6 nM,172 ± 5.3 nM,–,–,–,–
CC[C@@]1(O)C(=O)OCc2c1cc1n(c2=O)Cc2c-1nc1cc3c(cc1c2-c1cc(F)cc(OC)c1)OCO3 [Compound 7i],66.9 ± 6.5 nM,124 ± 12.1 nM,15.5 ± 2.2 nM,48.5 ± 2.3 nM,–,–,–,–
CCOc1ccc(-c2c3c(nc4cc5c(cc24)OCO5)-c2cc4c(c(=O)n2C3)COC(=O)[C@]4(O)CC)cc1F [Compound 7j],399 ± 19.8 nM,42.2 ± 3.6 nM,352 ± 10.3 nM,206 ± 38.2 nM,–,–,–,–
CC[C@@]1(O)C(=O)OCc2c1cc1n(c2=O)Cc2c-1nc1cc3c(cc1c2-c1cccc(C(F)(F)F)c1)OCO3 [Compound 7k],73.6 ± 7.1 nM,20.2 ± 3 nM,82.9 ± 5.6 nM,35 ± 6.6 nM,–,–,–,–
CC[C@@]1(O)C(=O)OCc2c1cc1n(c2=O)Cc2c-1nc1cc3c(cc1c2-c1ccc(OC(F)(F)F)cc1)OCO3 [Compound 7m],196 ± 19.1 nM,398 ± 2.6 nM,87.3 ± 14.4 nM,229 ± 5.8 nM,–,–,–,–
CC[C@@]1(O)C(=O)OCc2c1cc1n(c2=O)Cc2c-1nc1cc3c(cc1c2-c1ccc(F)c(F)c1)OCO3 [Compound 7n],48.8 ± 3.2 nM,39.7 ± 2.3 nM,9 nM,49.9 ± 3.5 nM,–,–,–,–
CC[C@@]1(O)C(=O)OCc2c1cc1n(c2=O)Cc2c-1nc1cc3c(cc1c2-c1cccc(OC(F)(F)F)c1)OCO3 [Compound 71],14.6 ± 6.7 nM,12.8 ± 7.4 nM,26.4 ± 7.5 nM,16.8 ± 2.3 nM,–,–,–,antitumor efficacy (CRC PDX27454 tumors): no more effective than FL118 in vivo
"CC[C@@]1(O)C(=O)OCc2c1cc1n(c2=O)Cc2c-1nc1cc3c(cc1c2C=Cc1ccccc1)OCO3 [FL7-5, 20 (S)-7-cinnamenyl-10,11-methylenedioxy-camptothecin]",–,–,–,–,5.13 nM,5.89 nM,2.51 nM,–
"CC[C@@]1(O)C(=O)OCc2c1cc1n(c2=O)Cc2c-1nc1cc3c(cc1c2CCc1ccccc1)OCO3 [FL7-14, 20 (S)-7-phenethyl-10,11-methylenedioxy-camptothecin]",–,–,–,–,4.1 nM,36.9 nM,8.39 nM,–
"CC[C@@]1(O)C(=O)OCc2c1cc1n(c2=O)Cc2c-1nc1cc3c(cc1c2CCc1ccccc1Cl)OCO3 [FL7-15, 20 (S)-7-(2-chloro-phenethyl)-10,11-methylenedioxy-camptothecin]",–,–,–,–,>500 nM,45.81 nM,12.59 nM,overall antitumor activity versus toxicity ranking [1]: not as good as FL7-5 and FL7-14
CC[C@@]1(O)C(=O)OCc2c1cc1n(c2=O)Cc2c-1nc1cc3c(cc1c2/C=C/C=C/c1ccccc1)OCO3 [FL7s-1],–,–,–,–,>500 nM,11.9 nM,4.16 nM,–
CCC1(O)C(=O)OCc2c1cc1n(c2=O)Cc2c-1nc1cc3c(cc1c2C=CC=Cc1ccc(OC)cc1)OCO3 (centres unmarked) [FL7s-2],–,–,–,–,>500 nM,113.2 nM,41.48 nM,–
CC[C@@]1(O)C(=O)OCc2c1cc1n(c2=O)Cc2c-1nc1cc3c(cc1c2CCc1ccc(F)cc1)OCO3 [FL7s-4],–,–,–,–,49.46 nM,4.7 nM,0.62 nM,–
CC[C@@]1(O)C(=O)OCc2c1cc1n(c2=O)Cc2c-1nc1cc3c(cc1c2CCCCc1ccccc1)OCO3 [FL7s-5],–,–,–,–,381.2 nM,3.58 nM,1.11 nM,–
CC[C@@]1(O)C(=O)OCc2c1cc1n(c2=O)Cc2c-1nc1cc3c(cc1c2CCCCc1ccc(OC)cc1)OCO3 [FL7s-6],–,–,–,–,6.48 nM,7.7 nM,1.52 nM,–
CC[C@@]1(O)C(=O)OCc2c1cc1n(c2=O)Cc2c-1nc1cc3c(cc1c2CCc1ccccc1F)OCO3 [FL7s-8],–,–,–,–,28.99 nM,4.88 nM,1.56 nM,–
CC[C@@]1(O)C(=O)OCc2c1cc1n(c2=O)Cc2c-1nc1cc3c(cc1c2CCc1ccc(F)c(F)c1)OCO3 [FL7s-9],–,–,–,–,1.86 nM,3.42 nM,1 nM,–
CC[C@@]1(O)C(=O)OCc2c1cc1n(c2=O)Cc2c-1nc1cc3c(cc1c2CCc1cc(F)c(F)c(F)c1)OCO3 [FL7s-10],–,–,–,–,12.26 nM,3.44 nM,1.15 nM,–
